Measured values as given in article PMC9986249, “Comparative study on antibacterial characteristics of the multiple liver expressed antimicrobial peptides (LEAPs) in teleost fish” (Frontiers in Immunology, 2023).
No end group written: not given here.

Assays:
[1] = test system: V. fluvialis WY91-24-3; assay: Bacterial membrane permeability assay (PI influx, flow cytometry); type: cell-based, Vibrio fluvialis; settings: peptide 8 μM, 10 mM NaPB pH 7.4, 37°C, 1 h; PI 9 μM; flow cytometry, 3,000 events; representative of three independent experiments
Description: The membrane permeability of bacteria after the treatment of peptides was assessed by flow cytometry as previously described ([33]) with minor modifications. In brief, V. fluvialis WY91-24-3 were cultured to mid-logarithmic phase, then washed twice and resuspended to 10^6 CFU/ml with 10 mM NaPB (pH 7.4). Thereafter, 40 μl of peptides diluted in NaPB was added to 160 μl of V. fluvialis to give a final concentration of 8 μM. LL37 and NaPB was used as the positive and negative control, respectively. After being incubated at 37°C for 1 h, propidium iodide (PI; Sigma-Aldrich) was added to the bacterial suspension at a final concentration of 9 μM. The PI positive bacterial cells were detected using the flow cytometer FACSVerse (BD Biosciences) at 3,000 events and the data were analyzed using the FlowJo software v10 (Tree Star).
Figure 6 Antibacterial mechanisms of LEAPs. (A–J) Membrane permeability of V. fluvialis treated with LEAPs. The bacteria were incubated with LEAPs (8 μM) at 37°C for 1 h, and a bacterial suspension without peptide was included as a control (Ctrl). Then PI (9 μM) was added and the influx of PI was detected by flow cytometry. Data are representative results of three independent experiments. (K) The data in (A–J) were analyzed statistically. The p value was calculated by one-way ANOVA with a Dunnett post hoc test. Different letters indicate significant differences (p<0.05). […]

[2] = test system: Gram-positive and Gram-negative bacteria; settings: cited from earlier work
From the text: Mammalian LEAP-2 is a single gene, which is mainly expressed by the liver, and to a certain extent by other tissues ([18]). For example, mouse LEAP-2 is mainly expressed in the liver and small intestine ([18]). […] Therefore, LEAP-2 may have other physiological functions besides sterilization. However, unlike mammals with a single LEAP-2 ...

Row | Substance | PI positive bacterial cells [1] | antibacterial activity [2]
1 | LL-37: human AMP LL-37, positive control of the membrane permeability assay (LLGDFFRKSKEKIGKEFKRIVQRIKDFLRNLVPRTES; Antibacterial peptide LL-37; UniProt P49913 134-170, looked up) | 85.2% | 
2 | cleaved form 44-77: cleaved form 44-77 of human LEAP-2 (GVSLRPIGASCRDDSECITRLCRKRRCSLSVAQE; ends and bridges not checked; cysteine pairing not given here; UniProt Q969E1 44-77, looked up, fragment) |  | loses antibacterial activity
3 | mature peptide 38-77 of human LEAP-2: mature peptide 38-77 of human LEAP-2 (MTPFWRGVSLRPIGASCRDDSECITRLCRKRRCSLSVAQE; ends and bridges not checked; cysteine pairing not given here; UniProt Q969E1 38-77, looked up) |  | different killing effects
